Literature values as cited in patent US11883631B2 (priority 2015, dated 2024).

How the values were obtained:
[1] = EEG monitor effect site; 18-60 yr
[2] = 10 mg/s vs 2 mg/s
[3] = in vivo
[4] = in vivo; remark: listed apart in the source

SMILES: CC(C)c1cccc(C(C)C)c1O [propofol]
- ke0 [1]: 0.456 min⁻¹
- drop in mean arterial pressure, higher vs lower infusion rate [2]: larger drop in mean arterial pressure
- effect-site concentration at burst suppression onset [3]: higher than 8 μg/ml
- Propofol concentration associated with awakening from anesthesia [4]: < 1.8 µg/mL
- Reductions in systolic blood pressure (SBP) (during induction of anesthesia with propofol): greater than 25%
- plasma concentration at which propofol may significantly decrease SBP (patients aged 20-85 yr, effect more evident in elderly (>70 yr)): > 10000 ng/mL
